From US20230312587A1, “PTERIDINONE COMPOUNDS AND USES THEREOF” (Vertex Pharmaceutical Incorporated, priority 2018, published 2023)

test system: β-catenin-TCF-mediated reporter transcription activity in Colo 205 cells; test: Colo 205 reporter assay (TCF/LEF luciferase); type: cell-based; conditions: Homo sapiens, COLO 205, 5 h, Colo 205 TCF/LEF luciferase reporter, five hours after addition of compound; read-out: TCF reporter Colo205 IC50
Summary of the method: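 Luciferase signal from a TCF/LEF-driven reporter, stably integrated in Colo 205 colon cancer cells, was measured 5 h after compound addition.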

Row | IC50 | Structure (SMILES)
1 | 1000 to 5000 nM | Cc1nc(NC2CN(C(=O)c3cc(C(F)(F)F)n(C)n3)C2)nc2c1NC(=O)[C@H](C(C)C)N2C [Compound 597, (S)-7-isopropyl-4,8-dimethyl-2-((1-(1-methyl-5-(trifluoromethyl)-1H-pyrazole-3-carbonyl)azetidin-3-yl)amino)-7,8-dihydropteridin-6(5H)-one]
2 | 300 to 1000 nM | Cc1nc(N[C@H]2C[C@@H](Nc3ncc(C(F)(F)F)cn3)C2)nc2c1NC(=O)[C@H](C(C)C)N2C [Compound 734, (S)-7-isopropyl-4,8-dimethyl-2-((cis-3-((5-(trifluoromethyl)pyrimidin-2-yl)amino)cyclobutyl)amino)-7,8-dihydropteridin-6(5H)-one]
3 | 1000 to 5000 nM | C[C@H]1C(=O)Nc2cnc(NCc3cnn(CCc4ccc(F)cc4F)c3)nc2N1C [Compound 119, (7S)-2-(((1-(2,4-difluorophenethyl)-1H-pyrazol-4-yl)methyl)amino)-7,8-dimethyl-7,8-dihydropteridin-6(5H)-one]
4 | ≥ 5000 nM | Cc1nc(N[C@H]2C[C@@H](NC(=O)N3CCC(F)(F)CC3)C2)nc2c1NC(=O)[C@H](C(C)C)N2C [Compound 525, 4,4-difluoro-N-(cis-3-(((S)-7-isopropyl-4,8-dimethyl-6-oxo-5,6,7,8-tetrahydropteridin-2-yl)amino)cyclobutyl)piperidine-1-carboxamide]
5 | 300 to 1000 nM | Cc1nc(N[C@H]2C[C@H](Nc3ccc(C(F)(F)F)nc3)C2)nc2c1NC(=O)[C@H](C(C)C)N2C [Compound 587, (S)-7-isopropyl-4,8-dimethyl-2-((trans-3-((6-(trifluoromethyl)pyridin-3-yl)amino)cyclobutyl)amino)-7,8-dihydropteridin-6(5H)-one]
6 | < 300 nM | CC[C@@]1(C)C(=O)N(C)c2cnc(NCc3cnn(Cc4ccc(F)cc4)c3)nc2N1C [Compound I-226]
7 | 1000 to 5000 nM | Cc1nc(N[C@H]2C[C@@H](Sc3ccc(OC(F)(F)F)cc3)C2)nc2c1N(C)C(=O)[C@H](C)N2C [Compound 348, (7S)-4,5,7,8-tetramethyl-2-((cis-3-((4-(trifluoromethoxy)phenyl)thio)cyclobutyl)amino)-7,8-dihydropteridin-6(5H)-one]
8 | < 300 nM | C[C@H]1C(=O)Nc2cnc(NCc3ccc(Oc4ccc(F)cc4)nc3)nc2N1C [Compound 56, (7S)-2-(((6-(4-fluorophenoxy)pyridin-3-yl)methyl)amino)-7,8-dimethyl-7,8-dihydropteridin-6(5H)-one]
9 | 1000 to 5000 nM | COc1ccc(O[C@H]2C[C@H](Nc3nc(C)c4c(n3)N(C)[C@@H](C)C(=O)N4)C2)cc1 [Compound 342, (7S)-2-((trans-3-(4-methoxyphenoxy)cyclobutyl)amino)-4,7,8-trimethyl-7,8-dihydropteridin-6(5H)-one]
10 | < 300 nM | Cc1nc(N[C@H]2C[C@@H](NC(=O)Nc3cc(F)c(F)c(F)c3)C2)nc2c1NC(=O)[C@H](C)N2C [Compound 472, 1-(3,4,5-trifluorophenyl)-3-(cis-3-(((S)-4,7,8-trimethyl-6-oxo-5,6,7,8-tetrahydropteridin-2-yl)amino)cyclobutyl)urea]
11 | 1000 to 5000 nM | CO[C@H](C)[C@H]1C(=O)Nc2c(C)nc(N[C@H]3C[C@@H](N(C)c4cnc(C(F)(F)F)cn4)C3)nc2N1C [Compound 651, (S)-7-((R)—1-methoxyethyl)-4,8-dimethyl-2-((cis-3-(methyl(5-(trifluoromethyl)pyrazin-2-yl)amino)cyclobutyl)amino)-7,8-dihydropteridin-6(5H)-one]
12 | < 300 nM | Cc1nc(NCc2cnn(Cc3ccc(OCC(F)(F)F)nc3)c2)nc2c1NC(=O)[C@H](C1CC1)N2C [Compound 435, (7S)-7-cyclopropyl-4,8-dimethyl-2-(((1-((6-(2,2,2-trifluoroethoxy)pyridin-3-yl)methyl)-1H-pyrazol-4-yl)methyl)amino)-7,8-dihydropteridin-6(5H)-one]
13 | 300 to 1000 nM | Cc1nc(N[C@H]2C[C@@H](Nc3ccc(C(F)(F)F)cn3)C2)nc2c1NC(=O)[C@H](C)N2C [Compound 562, (S)-4,7,8-trimethyl-2-((cis-3-((5-(trifluoromethyl)pyridin-2-yl)amino)cyclobutyl)amino)-7,8-dihydropteridin-6(5H)-one]
14 | < 300 nM | [2H]C([2H])([2H])N1C(=O)[C@H](C)N(C)c2nc(N[C@H]3C[C@H](Oc4cc(F)c(F)c(F)c4)C3)nc(C)c21 [Compound 327, (7S)-4,7,8-trimethyl-5-(methyl-d3)-2-((trans-3-(3,4,5-trifluorophenoxy)-cyclobutyl)-amino)-7,8-dihydropteridin-6(5H)-one]
15 | 300 to 1000 nM | Cc1nc(N[C@H]2C[C@@H](Cn3nc(C(F)(F)F)cc3N)C2)nc2c1NC(=O)[C@H](C(C)C)N2C [Compound 585, (S)-2-((cis-3-((5-amino-3-(trifluoromethyl)-1H-pyrazol-1-yl)methyl)cyclobutyl)amino)-7-isopropyl-4,8-dimethyl-7,8-dihydropteridin-6(5H)-one]
16 | 300 to 1000 nM | Cc1nc(NCc2cnn(Cc3cc(C(F)(F)F)ccn3)c2)nc2c1NC(=O)[C@H](C)N2C [Compound 201, (7S)-4,7,8-trimethyl-2-(((1-((4-(trifluoromethyl)pyridin-2-yl)methyl)-1H-pyrazol-4-yl)methyl)amino)-7,8-dihydropteridin-6(5H)-one]
17 | 300 to 1000 nM | Cc1nc(N[C@H]2C[C@@H](Cn3ccc(C(F)(F)F)n3)C2)nc2c1NC(=O)[C@H](C)N2C [Compound 698, (S)-4,7,8-trimethyl-2-((cis-3-((3-(trifluoromethyl)-1H-pyrazol-1-yl)methyl)cyclobutyl)amino)-7,8-dihydropteridin-6(5H)-one]
18 | 300 to 1000 nM | Cc1nc(N[C@H]2C[C@@H](N(C)c3cnc(C(F)(F)F)cn3)C2)nc2c1NC(=O)[C@H](C(C)C)N2C [Compound 652, (S)-7-isopropyl-4,8-dimethyl-2-((cis-3-(methyl(5-(trifluoromethyl)pyrazin-2-yl)amino)cyclobutyl)amino)-7,8-dihydropteridin-6(5H)-one]
19 | 300 to 1000 nM | CO[C@H](C)[C@H]1C(=O)Nc2c(C)nc(N[C@@H]3CC[C@H](Nc4cnc(C(F)(F)F)cn4)C3)nc2N1C [Compound 736, (S)-7-((R)—1-methoxyethyl)-4,8-dimethyl-2-(((1R,3S)-3-((5-(trifluoromethyl)pyrazin-2-yl)amino)cyclopentyl)amino)-7,8-dihydropteridin-6(5H)-one]
20 | < 300 nM | Cc1nc(NCc2cnn(-c3ccc(C(F)(F)F)nc3)c2)nc2c1NC(=O)[C@H](C)N2C [Compound 468, (S)-4,7,8-trimethyl-2-(((1-(6-(trifluoromethyl)pyridin-3-yl)-1H-pyrazol-4-yl)methyl)amino)-7,8-dihydropteridin-6(5H)-one]
21 | < 300 nM | CCc1noc(C)c1Cn1cc(CNc2nc(C)c3c(n2)N(C)[C@@H](C)C(=O)N3)cn1 [Compound 158, (7S)-2-(((1-((3-ethyl-5-methylisoxazol-4-yl)methyl)-1H-pyrazol-4-yl)methyl)amino)-4,7,8-trimethyl-7,8-dihydropteridin-6(5H)-one]
22 | 300 to 1000 nM | Cc1nc(NCc2cc(C)n(Cc3ccc(F)cc3)c2C)nc2c1NC(=O)[C@H](C(C)C)N2C [Compound 508, (S)-2-(((1-(4-fluorobenzyl)-2,5-dimethyl-1H-pyrrol-3-yl)methyl)amino)-7-isopropyl-4,8-dimethyl-7,8-dihydropteridin-6(5H)-one]
23 | < 300 nM | Cc1nc(N[C@H]2C[C@H](Oc3cncc(C(F)(F)F)c3)C2)nc2c1NC(=O)[C@H](C)N2C [Compound 315, (7S)-4,7,8-trimethyl-2-((trans-3-((5-(trifluoromethyl)pyridin-3-yl)oxy)cyclobutyl)amino)-7,8-dihydropteridin-6(5H)-one]
24 | < 300 nM | Cc1nc(N[C@H]2C[C@@H](NC(=O)Nc3ccc(C(F)(F)F)nc3)C2)nc2c1NC(=O)[C@H](C)N2C [Compound 473, 1-(6-(trifluoromethyl)pyridin-3-yl)-3-(cis-3-(((S)-4,7,8-trimethyl-6-oxo-5,6,7,8-tetrahydropteridin-2-yl)amino)cyclobutyl)urea]
25 | 300 to 1000 nM | Cc1nc(N[C@H]2C[C@H](Oc3cnc(C(F)(F)F)nc3)C2)nc2c1N(C)C(=O)[C@H](C)N2C [Compound 334, (7S)-4,5,7,8-tetramethyl-2-((trans-3-((2-(trifluoromethyl)pyrimidin-5-yl)oxy)cyclobutyl)amino)-7,8-dihydropteridin-6(5H)-one]
26 | 300 to 1000 nM | Cc1nc(N[C@H]2C[C@H](Oc3ccc(OCC(F)(F)F)nc3)C2)nc2c1N(C)C(=O)[C@H](C)N2C [Compound 346, (7S)-4,5,7,8-tetramethyl-2-((trans-3-((6-(2,2,2-trifluoroethoxy)pyridin-3-yl)oxy)cyclobutyl)amino)-7,8-dihydropteridin-6(5H)-one]
27 | < 300 nM | Cc1nc(NCc2cnn(Cc3cnccc3C(F)(F)F)c2)nc2c1NC(=O)[C@H](C)N2C [Compound 182, (7S)-4,7,8-trimethyl-2-(((1-((4-(trifluoromethyl)pyridin-3-yl)methyl)-1H-pyrazol-4-yl)methyl)amino)-7,8-dihydropteridin-6(5H)-one]
28 | < 300 nM | Cc1nc(NC2CN(C(=O)Cc3cc(F)c(F)c(F)c3)C2)nc2c1NC(=O)[C@H](C(C)C)N2C [Compound 544, (S)-7-isopropyl-4,8-dimethyl-2-((1-(2-(3,4,5-trifluorophenyl)acetyl)azetidin-3-yl)amino)-7,8-dihydropteridin-6(5H)-one]

same assay, conditions: Homo sapiens, COLO 205, 5 h, R-isomer at C2 (corresponding to C2 S-isomer); Colo 205 TCF/LEF luciferase reporter, 5 h; read-out: TCF reporter Colo205 IC50

Row | IC50 | Structure (SMILES)
29 | ≥ 5000 nM | CC[C@@H]1C(=O)Nc2cnc(NCc3cnn(Cc4ccc(F)cc4)c3)nc2N1C [Compound I-1634]
30 | 300 to 1000 nM | Cc1nc(NCc2cnn(Cc3ccc(C(F)(F)F)nc3)c2)nc2c1N(C)C(=O)[C@@H](C)N2C [Compound I-1363]
31 | 1000 to 5000 nM | Cc1nc(NCc2cnn(Cc3ccc(C(F)(F)F)nc3)c2)nc2c1NC(=O)[C@@H](C1CC1)N2C [Compound I-1639]
32 | < 300 nM | CCN1C(=O)[C@@H](C)N(CC)c2nc(NCc3cnn(Cc4cc(F)c(F)c(F)c4)c3)ncc21 [Compound I-1349]
